Some test systems named below: A549; HL-60; HOP-62; M14; MDA-MB-231; MDA-MB-435; MOLT-4; Malme-3M; NCI-H522; NCI/ADR-RES; OVCAR-4; SF-295; SK-MEL-28; SK-MEL-5; SW-620; T47D; TK-10; U-251; UACC-257; SNB-75.
Assay in all cases: NCI-60 cell line screen, 48 h

This is an account of results in ChEMBL document CHEMBL1201862, “PubChem BioAssay data set” (2004).

Each structure is given as a SMILES string.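 Protocol summary: plate cells (96-well), add compound at 5 concentrations, incubate 48 h, interpolate endpoints linearly. GI50 marks 50% less growth.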 Calls of active or inactive are those of the source. No stated cut-off is given here; in the data, active = GI50 up to about 1.1 µM and inactive = higher.

Regarding `Cc1ccc(-n2cc(-c3ccc(Cl)cc3)c3c(NNC(=S)NCc4ccccc4)ncnc32)cc1`, the GI50 is 4 µM (inactive) in the test on A549; 6.98 µM (inactive) in the test on HL-60; 16.6 µM (inactive) with HOP-62; 10.5 µM (inactive) with M14; 17.8 µM (inactive) in the test on MDA-MB-231; 8.02 µM (inactive) in the test with MDA-MB-435. The GI50 is 6.38 µM (inactive) with MOLT-4; 20.3 µM (inactive) with Malme-3M; 4.53 µM (inactive) in the test with NCI-H522; 6.37 µM (inactive) with NCI/ADR-RES; 17.5 µM (inactive) with OVCAR-4; 6.76 µM (inactive) in the test with SF-295. Further, the GI50 is 16.1 µM (inactive) in the test on SK-MEL-28; 5.09 µM (inactive) in the test with SK-MEL-5; 4.69 µM (inactive) with SW-620; 24.8 µM (inactive) in the test on T47D; 11.1 µM (inactive) in the test with TK-10; 5.36 µM (inactive) in the test with U-251. The GI50 in the test with UACC-257 is 12.6 µM (inactive).

As for `O=C1CC(C(=O)O)Cc2c(Br)ccc(O)c21` (stereo not drawn), the GI50 in the test on A549, in the test with HL-60, in the test with HOP-62, in the test on M14, in the test on MDA-MB-231 and in the test with MDA-MB-435 was > 100 µM (inactive) throughout. Further, the GI50 in the test with MOLT-4, with Malme-3M, with NCI-H522, with NCI/ADR-RES, in the test on OVCAR-4 and with SF-295 was > 100 µM (inactive) throughout. Moreover, the GI50 in the test on SK-MEL-28, in the test on SK-MEL-5, in the test on T47D, in the test on TK-10, in the test on U-251 and in the test with UACC-257 was > 100 µM (inactive) in each case.

Turning to `CC(C)(CO)NC(=O)c1cccs1`, the GI50 in the test on A549, in the test with HL-60, in the test on HOP-62, in the test on M14, in the test with MDA-MB-231 and in the test with MDA-MB-435 was > 100 µM (inactive) in each case. For the same compound, the GI50 in the test with MOLT-4, with Malme-3M, in the test with NCI-H522, in the test on NCI/ADR-RES, in the test with OVCAR-4 and in the test on SF-295 was > 100 µM (inactive) throughout. The GI50 in the test with SK-MEL-28, with SK-MEL-5, in the test on SW-620, in the test with T47D, with TK-10 and in the test on U-251 was > 100 µM (inactive) each time. Also, the GI50 in the test on UACC-257 is > 100 µM (inactive).

Regarding `COCOc1cc(OC)ccc1C/C=N/O`, the GI50 with A549, in the test with HL-60, in the test on HOP-62, with M14, in the test with MDA-MB-231 and in the test on MDA-MB-435 was > 100 µM (inactive) in each case. In addition, the GI50 with MOLT-4, in the test on Malme-3M, in the test with NCI-H522, with NCI/ADR-RES, in the test with OVCAR-4 and in the test with SF-295 was > 100 µM (inactive) throughout. For the same compound, the GI50 in the test with SK-MEL-28, in the test on SK-MEL-5, in the test on SW-620, in the test on T47D, with TK-10 and in the test with U-251 was > 100 µM (inactive) throughout. In addition, the GI50 with UACC-257 was > 100 µM (inactive).

Turning to `O=c1cc(N2CCN(c3cc(=O)n4ccccc4n3)CC2)oc2ccccc12`, the GI50 was 32.3 µM (inactive) with A549; 34.7 µM (inactive) in the test with M14; 61.9 µM (inactive) in the test with MDA-MB-231; 55 µM (inactive) in the test on MDA-MB-435; 33.6 µM (inactive) in the test on MOLT-4; > 100 µM (inactive) in the test on Malme-3M. The GI50 was 29.8 µM (inactive) in the test on NCI-H522; > 66.8 µM (inactive) in the test on NCI/ADR-RES; > 100 µM (inactive) with OVCAR-4; > 76.7 µM (inactive) with SF-295; > 100 µM (inactive) in the test on SK-MEL-28; 65.9 µM (inactive) in the test with SK-MEL-5. Also, the GI50 with SNB-75 was 9.06 µM (inactive); with SW-620, 29.7 µM (inactive); in the test with T47D, > 73.5 µM (inactive); with TK-10, > 100 µM (inactive); in the test on U-251, > 58.1 µM (inactive); in the test with UACC-257, > 24 µM (inactive).

Regarding `Cc1cc(O)c2c3c(ccc2c1)C(=O)c1c(O)cccc1C3=O` [TETRANGULOL], the GI50 in the test with A549 was 5.14 µM (inactive); in the test with HL-60, 0.692 µM (active); in the test with HOP-62, 16.3 µM (inactive); in the test on M14 it was 0.675 µM (active); in the test with MDA-MB-231 it was 17.5 µM (inactive); in the test with MDA-MB-435 it was 0.179 µM (active). Moreover, the GI50 with MOLT-4 is 5.48 µM (inactive); with Malme-3M it was 0.0157 µM (active); in the test with NCI-H522, 0.957 µM (active); in the test on NCI/ADR-RES, 5.97 µM (inactive); in the test with OVCAR-4, 4.57 µM (inactive); with SF-295 it was 17.4 µM (inactive). The GI50 with SK-MEL-28 is > 100 µM (inactive); in the test with SK-MEL-5 it was 0.33 µM (active); in the test on T47D, 5.14 µM (inactive); in the test on TK-10 it was 54.5 µM (inactive); with U-251 it was 21 µM (inactive); in the test on UACC-257, 2.28 µM (inactive).

As for `Cc1ccc2c(c1)nc1n2C(c2c(F)cccc2F)SC1` (stereo not drawn), the GI50 was 28.8 µM (inactive) in the test on A549; 57 µM (inactive) in the test with HOP-62; 51.1 µM (inactive) in the test with M14; 41 µM (inactive) in the test with MDA-MB-231; 29.6 µM (inactive) in the test on MDA-MB-435; 14.1 µM (inactive) in the test with MOLT-4. In addition, the GI50 in the test on Malme-3M was 18.9 µM (inactive); with NCI-H522, 31.5 µM (inactive); in the test with NCI/ADR-RES it was 31.8 µM (inactive); in the test with OVCAR-4, > 100 µM (inactive); in the test on SF-295, 35.1 µM (inactive); in the test on SK-MEL-28, 41 µM (inactive). Also, the GI50 in the test with SK-MEL-5 is > 10 µM (inactive); in the test with SNB-75 it was 8.51 µM (inactive); in the test with SW-620 it was 31.9 µM (inactive); with T47D it was 41.6 µM (inactive); in the test on TK-10 it was 81.1 µM (inactive); in the test on U-251, 39.8 µM (inactive). Further, the GI50 in the test with UACC-257 was 56.8 µM (inactive).

On to `Cc1nc2c(=O)[nH]c(=O)nc-2n(CCO)c1C`, for which the GI50 with A549, in the test on HOP-62, in the test on M14, in the test on MDA-MB-231, in the test on MDA-MB-435 and with MOLT-4 was > 100 µM (inactive) throughout. In addition, the GI50 in the test with Malme-3M, with NCI-H522, in the test on NCI/ADR-RES, with OVCAR-4, in the test with SF-295 and in the test with SK-MEL-28 was > 100 µM (inactive) in each case. In addition, the GI50 in the test on SK-MEL-5 was > 100 µM (inactive); with SNB-75, 82 µM (inactive); in the test with SW-620, > 100 µM (inactive); with T47D it was > 100 µM (inactive); in the test on TK-10, > 100 µM (inactive); with U-251 it was > 100 µM (inactive). Further, the GI50 in the test on UACC-257 was > 100 µM (inactive).

For `Cc1ccc(/C=C2\CN(C)CC3C2=NN(c2ccccc2)C3c2ccc(C)cc2)cc1` (stereo not drawn), the GI50 in the test with A549 is > 100 µM (inactive); in the test with HOP-62, > 100 µM (inactive); with M14 it was 57.4 µM (inactive); in the test with MDA-MB-231, > 100 µM (inactive); in the test with MDA-MB-435, > 100 µM (inactive); with MOLT-4 it was 36.4 µM (inactive). In addition, the GI50 with Malme-3M is 36.6 µM (inactive); in the test with NCI-H522, > 100 µM (inactive); in the test with NCI/ADR-RES it was > 100 µM (inactive); in the test on OVCAR-4, > 100 µM (inactive); with SF-295 it was > 100 µM (inactive); with SK-MEL-28 it was > 100 µM (inactive). Moreover, the GI50 with SK-MEL-5 was > 100 µM (inactive); with SW-620 it was > 100 µM (inactive); in the test on T47D it was > 100 µM (inactive); with TK-10, > 100 µM (inactive); with U-251, 33.3 µM (inactive); with UACC-257, > 100 µM (inactive).

Consider `Clc1ccccc1/C=c1\nc(-c2ccccc2)n2c1nc1ccccc12`, for which the GI50 with A549 is > 100 µM (inactive); with HL-60, > 100 µM (inactive); in the test on HOP-62, 20.8 µM (inactive); with M14, > 100 µM (inactive); with MDA-MB-231 it was 22.8 µM (inactive); with MDA-MB-435, > 100 µM (inactive). Besides, the GI50 is > 100 µM (inactive) in the test on MOLT-4; > 100 µM (inactive) in the test on Malme-3M; 40.9 µM (inactive) in the test on NCI/ADR-RES; > 100 µM (inactive) with OVCAR-4; 10.7 µM (inactive) in the test with SF-295; > 100 µM (inactive) in the test with SK-MEL-28. Further, the GI50 with SK-MEL-5 is > 100 µM (inactive); with SW-620 it was > 100 µM (inactive); with T47D, > 100 µM (inactive); in the test on TK-10 it was 31.4 µM (inactive); in the test with U-251, 21.7 µM (inactive); in the test with UACC-257, > 100 µM (inactive).

Consider `CC(=O)O[C@H]1CCC2[C@@H]3CCC4Nc5oncc5C[C@]4(C)C3CC[C@@]21C` (stereo partly drawn), for which the GI50 in the test on A549 was > 10 µM (inactive); in the test on HL-60, 1.98 µM (inactive); with HOP-62, > 10 µM (inactive); in the test on M14 it was > 10 µM (inactive); with MDA-MB-231, > 10 µM (inactive); in the test with MDA-MB-435, > 10 µM (inactive). The GI50 with MOLT-4 is 3.92 µM (inactive); in the test with Malme-3M it was > 10 µM (inactive); in the test with NCI/ADR-RES, > 10 µM (inactive); in the test with OVCAR-4, > 10 µM (inactive); in the test with SF-295 it was > 10 µM (inactive); in the test with SK-MEL-28 it was > 10 µM (inactive). The GI50 in the test with SK-MEL-5, with SW-620, with T47D, in the test with TK-10, with U-251 and in the test with UACC-257 was > 10 µM (inactive) throughout.
